Laboratory results reported in patent US6737383B1, “Herbicidal oxadiazolidines” (priority 1999, dated 2004).

Experiments:
[1] = tested on: winter wheat; assay: Test E winter wheat; format: in vivo, Triticum aestivum; details: Postemergence
How it was run: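 Greenhouse test: for postemergence, foliar application at 1- to 4-leaf stage; compound in non-phytotoxic solvent with surfactant. Rating is visual, relative to untreated controls, about 21 to 28 days after treatment.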

[2] = tested on: blackgrass; assay: Test E blackgrass; format: in vivo, Alopecurus myosuroides; details: Preemergence
[3] = tested on: itchgrass; assay: Test D itchgrass; format: in vivo, Rottboellia exaltata; details: Preemergence, 0 to 100 scale
How it was run: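 Scoring used a 0–100 visual injury scale, with 0 meaning no effect and 100 complete control, assessed 14–21 days after application alongside untreated pots. Preemergence treatments went onto sandy loam surfaces of separately potted seeds within a day of sowing.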

[4] = tested on: crabgrass; assay: Test B pre/postemergence crabgrass; format: in vivo, Digitaria sanguinalis
How it was run: (§1)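 Test chemicals in a non-phytotoxic solvent mixture with surfactant were sprayed preemergence onto planted seeds and postemergence onto plants 2 to 18 cm tall (1- to 4-leaf stage). After twelve to sixteen days in a greenhouse, injury was visually rated against untreated controls from 0 (no effect) to 10 (complete control).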

[5] = tested on: Italian ryegrass; assay: Test E Italian ryegrass; format: in vivo, Lolium multiflorum; details: Preemergence
[6] = tested on: Green foxtail; assay: Test D green foxtail; format: in vivo; details: Preemergence, 0 to 100 scale
How it was run: (§2)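 Each weed species is planted in its own pot or compartment; preemergence doses go on the sandy loam surface within a day. The formulation is a surfactant-containing, non-phytotoxic solvent blend. Ratings come from visual comparison with untreated controls 14 to 21 days later, where 100 means complete control.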

[7] = tested on: green foxtail; assay: Test E green foxtail; format: in vivo, Setaria viridis; details: Preemergence
[8] = tested on: dallisgrass; assay: Test D dallisgrass; format: in vivo, Paspalum dilatatum; details: Preemergence, 0 to 100 scale
How it was run: as §2

[9] = tested on: purple nutsedge; assay: Test B pre/postemergence purple nutsedge; format: in vivo, Cyperus rotundus
How it was run: as §1

[10] = tested on: winter wheat; assay: Test E winter wheat; format: in vivo, Triticum aestivum; details: Preemergence
[11] = tested on: winter barley; assay: Test E winter barley; format: in vivo, Hordeum vulgare; details: Preemergence
[12] = tested on: Green foxtail; assay: Test D green foxtail; format: in vivo
How it was run: as §2

[13] = tested on: duck salad; assay: Test B flood test duck salad; format: in vivo, Heteranthera limosa
How it was run: (§3)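 Read-out is a visual response score from 0 (no effect) to 10 (complete control), assigned by comparison with untreated controls. Treatment was applied at the 2-leaf stage, and plants stayed in the greenhouse for twelve to sixteen days before scoring.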

[14] = tested on: wild oat; assay: Test E wild oat; format: in vivo, Avena fatua; details: Preemergence
[15] = tested on: bamyardgrass; assay: Test B flood test barnyardgrass; format: in vivo, Echinochloa crus-galli
How it was run: as §3

[16] = Rate 31 g/ha, 0 to 100 scale, 0 no effect, 100 complete control
[17] = Rate 62 g/ha, 0 to 100 scale, 0 no effect, 100 complete control
[18] = Rate 125 g/ha, 0 to 100 scale (0 no effect, 100 complete control)
[19] = Rate 16 g/ha, 0 no injury, 100 complete control
[20] = Rate 32 g/ha, 0 no injury, 100 complete control
[21] = Rate 64 g/ha, 0 no injury, 100 complete control
[22] = Rate 125 g/ha, 0 no injury, 100 complete control
[23] = Postemergence, Rate 62 g/ha, scale 0 to 10, 0 is no effect, 10 is complete control
[24] = Postemergence, Rate 125 g/ha, scale of 0 to 10 where 0 is no effect and 10 is complete control
[25] = Postemergence, Rate 250 g/ha, scale 0 to 10, 0 no effect, 10 complete control
[26] = Preemergence, Rate 62 g/ha, scale 0 to 10 (0 no effect, 10 complete control)
[27] = Preemergence, Rate 125 g/ha, scale 0 to 10 (0 no effect, 10 complete control)
[28] = Preemergence, Rate 250 g/ha, scale of 0 to 10 where 0 is no effect and 10 is complete control
[29] = Rate 500 g/ha, Postemergence, scale 0 to 10, 0 no effect, 10 complete control
[30] = Rate 64 g/ha, Preemergence; 0 to 100 scale, 0 no injury, 100 complete control
[31] = Rate 125 g/ha, Preemergence; 0 to 100 scale, 0 no injury, 100 complete control
[32] = Rate 250 g/ha, headed Pre-emergence (flood test species), scale 0 to 10 (0 no effect, 10 complete control)
[33] = Rate 500 g/ha, headed Pre-emergence (flood test species), scale 0 to 10 (0 no effect, 10 complete control)
[34] = Rate 500 g/ha, listed under Postemergence (flood test species), scale 0 to 10, 0 no effect, 10 complete control
[35] = Rate 1000 g/ha, Pre-emergence (as headed), scale 0 to 10
[36] = flood test, listed under Postemergence, Rate 250 g/ha, scale 0 to 10, 0 no effect, 10 complete control

C=CCn1c(=O)on(C(=O)N(c2ccccc2)C(C)C)c1=O [Compound 93]
Plant response rating, Wheat (winter) [1, 16]: 0 | Plant response rating, Wheat (winter) ([1]; Rate 62 g/ha, 0 to 100 scale): 20 | Plant response rating, Wheat (winter) ([1]; Rate 125 g/ha, 0 to 100 scale): 65 | Plant response rating, Wheat (winter) ([1]; Rate 250 g/ha, 0 to 100 scale (0 no effect, 100 complete control)): 0 | Plant response rating, Blackgrass [2, 16]: 0 | Plant response rating, Blackgrass [2, 17]: 50 | Plant response rating, Blackgrass [2, 18]: 70 | Plant response rating, Blackgrass ([2]; Rate 250 g/ha, 0 to 100 scale): 75 | Plant response rating, Itchgrass [3, 19]: 50 | Plant response rating, Itchgrass [3, 20]: 60 | Plant response rating, Itchgrass [3, 21]: 60 | Plant response rating, Itchgrass [3, 22]: 75 | Plant response rating, Itchgrass ([3]; Rate 250 g/ha): 90 | Plant response rating, Itchgrass ([3]; Rate 500 g/ha): 100 | Crabgrass plant response rating [4, 23]: 7 | Crabgrass plant response rating [4, 24]: 8 | Crabgrass plant response rating [4, 25]: 9 | Crabgrass plant response rating [4, 26]: 7 | Plant response rating, Crabgrass [4, 27]: 9 | Plant response rating, Crabgrass [4, 28]: 9 | Crabgrass plant response rating ([4]; Preemergence, Rate 500 g/ha, scale 0 (no effect) to 10 (complete control)): 10 | Crabgrass plant response rating [4, 29]: 9 | Plant response rating, I. Ryegrass [5, 16]: 30 | Plant response rating, I. Ryegrass [5, 17]: 50 | Plant response rating, I. Ryegrass [5, 18]: 70 | Plant response rating, I. Ryegrass ([5]; Rate 250 g/ha, 0 to 100 scale): 100 | Plant response rating, Green foxtail ([6]; Rate 250 g/ha): 100 | Plant response rating, Green foxtail ([6]; Rate 500 g/ha): 100 | Plant response rating, Green foxtail [7, 16]: 30 | Plant response rating, Green foxtail [7, 17]: 70 | Plant response rating, Green foxtail [7, 18]: 80 | Plant response rating, Dallisgrass [8, 19]: 60 | Plant response rating, Dallisgrass [8, 20]: 98 | Plant response rating, Dallisgrass [8, 21]: 98 | Plant response rating, Dallisgrass [8, 22]: 98 | Plant response rating, Dallisgrass ([8]; Rate 250 g/ha): 100 | Plant response rating, Dallisgrass ([8]; Rate 500 g/ha): 100 | Nutsedge plant response rating [9, 23]: 0 | Nutsedge plant response rating [9, 24]: 0 | Nutsedge plant response rating [9, 25]: 0 | Nutsedge plant response rating [9, 26]: 0 | Plant response rating, Nutsedge [9, 27]: 0 | Plant response rating, Nutsedge [9, 28]: 0 | Nutsedge plant response rating [9, 29]: 3 | Plant response rating, Wheat (winter) [10, 16]: 20 | Plant response rating, Wheat (winter) [10, 17]: 40 | Plant response rating, Wheat (winter) [10, 18]: 40 | Plant response rating, Wheat (winter) ([10]; Rate 250 g/ha, 0 to 100 scale): 100 | Plant response rating, Barley (winter) [11, 16]: 20 | Plant response rating, Barley (winter) [11, 17]: 50 | Plant response rating, Barley (winter) [11, 18]: 50 | Plant response rating, Barley (winter) ([11]; Rate 250 g/ha, 0 to 100 scale): 50 | Plant response rating, Green foxtail ([12]; Preemergence; Rate 16 g/ha; 0 to 100 scale, 0 no injury, 100 complete control): 65 | Plant response rating, Green foxtail ([12]; Preemergence; Rate 32 g/ha; 0 to 100 scale, 0 no injury, 100 complete control): 75 | Plant response rating, Green foxtail ([12]; Rate 16 g/ha; Preemergence; 0 to 100 scale, 0 no injury, 100 complete control): 65 | Plant response rating, Green foxtail ([12]; Rate 32 g/ha; Preemergence; 0 to 100 scale, 0 no injury, 100 complete control): 0 | Green foxtail plant response rating [12, 30]: 100 | Plant response rating, Green foxtail [12, 30]: 100 | Green foxtail plant response rating [12, 31]: 100 | Plant response rating, Green foxtail [12, 31]: 100 | Plant response rating, Green foxtail ([12]; Rate 250 g/ha; Preemergence; 0 to 100 scale): 100 | Plant response rating, Green foxtail ([12]; Rate 500 g/ha, Preemergence; 0 to 100 scale): 100 | Ducksalad plant response rating ([13]; Postemergence (flood test species), Rate 125 g/ha, scale of 0 to 10 where 0 is no effect and 10 is complete control): 0 | Ducksalad plant response rating [13, 23]: 0 | Ducksalad plant response rating [13, 32]: 0 | Plant response rating, Ducksalad [13, 33]: 0 | Ducksalad plant response rating [13, 34]: 0 | Ducksalad plant response rating [13, 35]: 0 | Ducksalad plant response rating ([13]; Rate 2000 g/ha, Pre-emergence (as headed), scale 0 to 10): 0 | Ducksalad plant response rating [13, 36]: 0 | Plant response rating, Wild oat [14, 16]: 40 | Plant response rating, Wild oat [14, 17]: 50 | Plant response rating, Wild oat [14, 18]: 60 | Barnyardgrass plant response rating [15, 23]: 0 | Barnyardgrass plant response rating ([15]; Rate 125 g/ha, Postemergence section (flood test species), scale 0 to 10, 0 no effect, 10 complete control): 0 | Barnyardgrass plant response rating [15, 32]: 0 | Plant response rating, Barnyardgrass [15, 33]: 0 | Barnyardgrass plant response rating [15, 34]: 0 | Barnyardgrass plant response rating [15, 35]: 0 | Barnyardgrass plant response rating ([15]; Rate 2000 g/ha, Pre-emergence (as headed), scale 0 to 10, 0 no effect, 10 complete control): 0 | Barnyardgrass plant response rating [15, 36]: 0
